From patent publication US11459332B2, “Substituted 2-azabicyclo[3.1.0]hexanes as TRK kinases inhibitors” (FOCHON BIOSCIENCES, LTD., priority 2018, dated 2022)

How the values were obtained:
Assay type in all cases: cell-based
KM12 cells = KM12 cells proliferation inhibition (MTS), mechanism-based TRK assay; details: Homo sapiens, 72 h
Description: (§1) MTS testing kit was purchased from Promega (Madison, Wis., USA). The RPMI-1640, Fetal bovine serum and Penicillin-Streptomycin were purchased from Gibco (San Francisco, Calif., USA). Dimethyl sulfoxide (DMSO) and Puromycin were purchased from Sigma (St. Louis, Mo., USA). Mouse interleukin-3 (IL-3) was purchased from Cell signaling Technology (Boston, Mass., USA).
To investigate whether a compound is able to inhibit the activity of TRK in cells, a mechanism-based assay using KM12 cells was developed. In this assay, inhibition of TRK was detected by the inhibition of KM12 cells proliferation. KM12 cells were cultured in culture flasks to 40-80% confluence in RPMI-1640 plus 10% fetal bovine serum. Cells were collected and plated onto 96-well plates at 1000 cells/well. Plates were incubated at 37° C., with 5% CO2 for 4 h. Compounds were added to the plates, the final compound concentrations were […], 123.5, 41.2, 13.7, 4.6 and 1.5 nM. Place plates at 37° C., with 5% CO2 for KM12 cells 72 h. 20 μl MTS/100 μl medium mixture solution were added to each well and incubate the plates for exactly 2 h. Stop the reaction by adding 25 μl 10% SDS per well. Measure absorbance at 490 nm and 650 nm (reference wavelength). IC50 was calculated using GraphPad Prism 5.0.

ETV6-TRKC = target: T1, ETV6-TRKC (Homo sapiens, UniProt Q16288); experiment: Engineered Ba/F3 cell proliferation inhibition (MTS), ETV6-TRKC; details: Ba/F3-ETV6-TRKC cells, 72 h
T1 construct: ETV6 (fusion partner, N-terminal part); expressed in transfected cells; the other entry of the earlier key: ETV6 (P41212, Transcription factor ETV6)
Description: as §1
(§2) To investigate whether a compound is able to inhibit the activity of TRK fusion mutation in cells, a mechanism-based assay using engineered Ba/F3 cell lines stably overexpressing oncogenic rearrangement or gene mutation of TRK (TPM3-TRKA, TPM3-TRKA-G595R, AFAP1-TRKB, ETV6-TRKC and ETV6-TRKC-G623R) were developed. In this assay, inhibition of TRK fusion mutation was detected by the cell proliferation inhibition of engineered Ba/F3 cells. Engineered Ba/F3 cells were cultured in culture flasks to 40-80% confluence in RPMI-1640 supplemented with 10% fetal bovine serum, 2 ug/mL puromycin. Cells were collected and plated onto 96-well plates at desired cell density (Ba/F3-TPM3-TRKA: 3×10^4/mL, Ba/F3-TPM3-TRKA-G595R: 1×10^5/mL, Ba/F3-AFAP1-TRKB: 1×10^5/mL, Ba/F3-ETV6-TRKC: 3×10^4/mL, Ba/F3-ETV6-TRKC-G623R: 3×10^4/mL). Plates were incubated at 37° C., with 5% CO2 for 4 h. Compounds were then added to the plates with the final compound concentrations of 10000, 3333, 1111, […], 123, 41.2, 13.7, 4.6 and 1.5 nM. Plates were incubated at 37° C., with 5% CO2 for 72 h. A mixture of 20 μl MTS/100 μl medium were added to each well and the plates were incubated at 37° C., with 5% CO2 for exactly 2 h. The reaction was stopped by adding 25 μl of 10% SDS per well. The absorbance was measured at 490 nm and 650 nm (reference wavelength). IC50 was calculated using GraphPad Prism 5.0 software.

TPM3-TRKA = target: T2, TPM3-TRKA (Homo sapiens, UniProt P04629); experiment: Engineered Ba/F3 cell proliferation inhibition (MTS), TPM3-TRKA; details: Ba/F3-TPM3-TRKA cells, 72 h
T2 construct: TPM3 (fusion partner, N-terminal part); expressed in transfected cells; the other entry of the earlier key: TPM3 (P06753, Tropomyosin alpha-3 chain)
Description: as §1, §2

TPM3-TRKA-G595R = target: T3, TPM3-TRKA-G595R (Homo sapiens, UniProt P04629, G595R); experiment: Engineered Ba/F3 cell proliferation inhibition (MTS), TPM3-TRKA-G595R; details: Ba/F3-TPM3-TRKA-G595R cells, 72 h
T3 construct: TPM3 (fusion partner, N-terminal part); expressed in transfected cells; the other entry of the earlier key: TPM3 (P06753, Tropomyosin alpha-3 chain)
Description: as §1, §2

T1 sequence (Q16288 530-825 isoform Q16288-3 limits assumed): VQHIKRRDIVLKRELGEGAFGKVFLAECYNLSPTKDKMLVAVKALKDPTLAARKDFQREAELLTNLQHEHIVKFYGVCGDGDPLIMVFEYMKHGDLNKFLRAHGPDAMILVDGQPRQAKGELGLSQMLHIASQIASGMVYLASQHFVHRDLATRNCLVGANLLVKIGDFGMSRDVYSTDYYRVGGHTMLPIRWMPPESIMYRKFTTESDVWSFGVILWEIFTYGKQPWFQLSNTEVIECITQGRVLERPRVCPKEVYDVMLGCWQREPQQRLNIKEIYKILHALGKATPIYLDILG
T3 sequence (P04629 510-796 G595R limits assumed): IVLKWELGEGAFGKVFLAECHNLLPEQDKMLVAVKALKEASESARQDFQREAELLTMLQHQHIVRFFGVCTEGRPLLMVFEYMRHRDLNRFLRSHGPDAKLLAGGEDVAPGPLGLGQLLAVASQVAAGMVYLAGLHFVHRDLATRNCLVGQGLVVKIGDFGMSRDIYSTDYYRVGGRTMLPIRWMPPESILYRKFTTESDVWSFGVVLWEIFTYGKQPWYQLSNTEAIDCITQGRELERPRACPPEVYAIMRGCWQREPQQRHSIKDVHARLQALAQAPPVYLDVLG
T2 sequence (P04629 510-796 limits assumed): as the sequence (P04629 510-796 G595R limits assumed) above, with R86G counted along it

Row | SMILES | IC50 (ETV6-TRKC) [nM] | IC50 (TPM3-TRKA) [nM] | IC50 (TPM3-TRKA-G595R) [nM] | IC50 (KM12 cells) [nM]
1 | O=C(Nc1cnn2ccc(N3CC[C@H]4C[C@]43c3cc(F)ccc3F)nc12)N1CCC(F)C1 (stereo in doubt) [Example 10, (R)-N-(5-((1R,5S)-1-(2,5-difluorophenyl)-2-azabicyclo[3.1.0]hexan-2-yl)pyrazolo [1,5-a]pyrimidin-3-yl)-3-fluoropyrrolidine-1-carboxamide] | 2 | – | – | 23
2 | O=C(Nc1cnn2ccc(N3CC[C@H]4C[C@]43c3cc(F)ccc3Cl)nc12)N1CC[C@H](O)C1 [Example 2, (S)—N-(5-((1R,5S)-1-(2-chloro-5-fluorophenyl)-2-azabicyclo[3.1.0]hexan-2-yl)pyrazolo[1,5-a]pyrimidin-3-yl)-3-hydroxypyrrolidine-1-carboxamide] | 7 | 44 | – | 42
3 | O=C(Nc1cnn2ccc(N3CC[C@H]4C[C@]43c3cc(F)ccc3Cl)nc12)N1CC[C@@H](O)C1 [Example 3, (R)—N-(5-((1R,5S)-1-(2-chloro-5-fluorophenyl)-2-azabicyclo[3.1.0]hexan-2-yl)pyrazolo[1,5-a]pyrimidin-3-yl)-3-hydroxypyrrolidine-1-carboxamide] | 17 | 47 | – | 36
4 | O=C(Nc1cnc2ccc(N3CC[C@H]4C[C@]43c3cc(F)ccc3F)nn12)N1CC[C@H](O)C1 [Example 4, (S)—N-(6-((1R,5S)-1-(2,5-difluorophenyl)-2-azabicyclo[3.1.0]hexan-2-yl)imidazo[1,2-b]pyridazin-3-yl)-3-hydroxypyrrolidine-1-carboxamide] | 1 | 5 | – | 2
5 | CC(C)c1nnc(-c2cnn3ccc(N4CC[C@H]5C[C@]54c4cc(F)ccc4F)nc23)o1 [Example 5, 2-(5-((1R,5S)-1-(2,5-difluorophenyl)-2-azabicyclo[3.1.0]hexan-2-yl)pyrazolo[1,5-a]pyrimidin-3-yl)-5-isopropyl-1,3,4-oxadiazole] | – | 6 | 40 | 9
6 | O=C(Nc1cnn2ccc(N3CC[C@H]4C[C@]43c3cc(F)ccc3F)nc12)N1CC[C@@H](O)C1 [Example 7, (R)-N-(5-((1R,5S)-1-(2,5-difluorophenyl)-2-azabicyclo[3.1.0]hexan-2-yl)pyrazolo[1,5-a]pyrimidin-3-yl)-3-hydroxypyrrolidine-1-carboxamide] | 3 | 3 | – | 20
7 | O=C(Nc1cnc2ccc(N3CC[C@H]4C[C@]43c3cc(F)ccc3F)nn12)N1CC[C@@H](O)C1 [Example 8, (R)-N-(6-((1R,5S)-1-(2,5-difluorophenyl)-2-azabicyclo[3.1.0]hexan-2-yl)imidazo[1,2-b]pyridazin-3-yl)-3-hydroxypyrrolidine-1-carboxamide] | 5 | 5 | – | 25
8 | CO[C@H]1CCN(C(=O)Nc2cnn3ccc(N4CC[C@H]5C[C@]54c4cc(F)ccc4F)nc23)C1 [Example 9, (S)-N-(5-((1R,5S)-1-(2,5-difluorophenyl)-2-azabicyclo[3.1.0]hexan-2-yl)pyrazolo [1,5-a]pyrimidin-3-yl)-3-methoxypyrrolidine-1-carboxamide] | 4 | – | – | 42
9 | O=C(Nc1cnn2ccc(N3CC[C@H]4C[C@]43c3cc(F)ccc3F)nc12)N1CC[C@@H](F)C1 [Example 11, (R)-N-(5-((1R,5S)-1-(2,5-difluorophenyl)-2-azabicyclo[3.1.0]hexan-2-yl)pyrazolo [1,5-a]pyrimidin-3-yl)-3-fluoropyrrolidine-l-carboxamide] | – | – | – | 53
10 | O=C(Nc1cnn2ccc(N3CC[C@H]4C[C@]43c3cc(F)ccc3F)nc12)N1CCC(F)(F)C1 [Example 12, N-(5-((1R,5S)-1-(2,5-difluorophenyl)-2-azabicyclo [3.1.0]hexan-2-yl)pyrazolo[1,5-a]pyrimidin-3-yl)-3,3-difluoropyrrolidine-1-carboxamide] | 9 | – | – | 2
11 | O=C(Nc1cnn2ccc(N3CC[C@H]4C[C@]43c3cc(F)ccc3F)nc12)c1ccccn1 [Example 15, N-(5-((1R,5S)-1-(2,5-difluorophenyl)-2-azabicyclo [3.1.0]hexan-2-yl)pyrazolo[1,5-a]pyrimidin-3-yl) picolinamide] | 1 | 1 | 18 | 1

Second part, led by results:

Row | IC50 (ETV6-TRKC) [nM] | IC50 (TPM3-TRKA) [nM] | IC50 (TPM3-TRKA-G595R) [nM] | SMILES | IC50 (KM12 cells) [nM]
12 | 1 | 1 | 5 | Cc1cccc(C(=O)Nc2cnn3ccc(N4CC[C@H]5C[C@]54c4cc(F)ccc4F)nc23)n1 [Example 16, N-(5-((1R,5S)-1-(2,5-difluorophenyl)-2-azabicyclo [3.1.0]hexan-2-yl)pyrazolo[1,5-a]pyrimidin-3-yl)-6-methylpicolinamide] | 1
13 | 1 | 2 | – | Cc1cccnc1C(=O)Nc1cnn2ccc(N3CC[C@H]4C[C@]43c3cc(F)ccc3F)nc12 [Example 17, N-(5-((1R,5S)-1-(2,5-difluorophenyl)-2-azabicyclo [3.1.0]hexan-2-yl)pyrazolo[1,5-a]pyrimidin-3-yl)-3-methylpicolinamide] | 1
14 | 1 | 33 | – | Cc1ccc(C(=O)Nc2cnn3ccc(N4CC[C@H]5C[C@]54c4cc(F)ccc4F)nc23)nc1 [Example 18, N-(5-((1R,5S)-1-(2,5-difluorophenyl)-2-azabicyclo [3.1,0]hexan-2-yl)pyrazolo[1,5-a]pyrimidin-3-yl)-5-methylpicolinamide] | 2
15 | 1 | 2 | – | O=C(Nc1cnn2ccc(N3CC[C@H]4C[C@]43c3cc(F)ccc3F)nc12)c1ccc(F)cn1 [Example 19, N-(5-((1R,5S)-1-(2,5-difluorophenyl)-2-azabicyclo [3.1.0]hexan-2-yl)pyrazolo[1,5-a]pyrimidin-3-yl)-5-fluoropicolinamide] | 1
16 | 1 | 14 | 67 | Cc1cnc(C(=O)Nc2cnn3ccc(N4CC[C@H]5C[C@]54c4cc(F)ccc4F)nc23)nc1 [Example 20, N-(5-((1R,5S)-1-(2,5-difluorophenyl)-2-azabicyclo [3.1.0]hexan-2-yl)pyrazolo[1,5-a]pyrimidin-3-yl)-5-methylpyrimidine-2-carboxamide] | 6
17 | 1 | 10 | – | O=C(Nc1cnn2ccc(N3CC[C@H]4C[C@]43c3cc(F)ccc3F)nc12)c1ncc(F)cn1 [Example 21, N-(5-((1R,5S)-1-(2,5-difluorophenyl)-2-azabicyclo [3.1.0]hexan-2-yl)pyrazolo[1,5-a]pyrimidin-3-yl)-5-fluoropyrimidine-2-carboxamide] | 24
18 | 16 | – | – | O=C(Nc1cnn2ccc(N3CC[C@H]4C[C@]43c3cc(F)ccc3F)nc12)c1ccc(Cl)cn1 [Example 24, 5-chloro-N-(5-((1R,5S)-1-(2,5-difluorophenyl)-2-azabicyclo[3.1.0]hexan-2-yl)pyrazolo[1,5-a]pyrimidin-3-yl)picolinamide] | 38
19 | 2 | 19 | – | O=C1c2ccccc2CN1c1cnn2ccc(N3CC[C@H]4C[C@]43c3cc(F)ccc3F)nc12 [Example 28, 2-(5-((1R,5S)-1-(2,5-difluorophenyl)-2-azabicyclo [3.1.0]hexan-2-yl)pyrazolo[1,5-a]pyrimidin-3-yl)isoindolin-1-one] | –
